In brackets after ≈: the same amount, converted by molar mass.
Experiments:
[1] = tested on: Staphylococcus aureus 209-P; assay: Antibacterial activity (MIC), Staphylococcus aureus 209-P; type: cell-based
[2] = tested on: Staphylococcus aureus E31106; assay: Antibacterial activity (MIC), Staphylococcus aureus E31106; type: cell-based; settings: Staphylococcus aureus E31106, β Lactamase producing bacteria
[3] = tested on: Escherichia coli NIHJ; assay: Antibacterial activity (MIC), Escherichia coli NIHJ; type: cell-based
[4] = tested on: Pseudomonas aeruginosa EP-01; assay: Antibacterial activity (MIC), Pseudomonas aeruginosa EP-01; type: cell-based; settings: EP01
[5] = tested on: Serratia marcescens ES-75; assay: Antibacterial activity (MIC), Serratia marcescens ES-75; type: cell-based; settings: ES75
[6] = tested on: Pseudomonas maltophilia E04004; assay: Antibacterial activity (MIC), Pseudomonas maltophilia E04004; type: cell-based; settings: Stenotrophomonas maltophilia
[7] = tested on: Citrobacter freundii EC-34; assay: Antibacterial activity (MIC), Citrobacter freundii EC-34; type: cell-based; settings: EC34; Citrobacter freundii EC-34, β Lactamase producing bacteria
[8] = Acute toxicity, LD50 (mouse, intravenous injection); settings: in vivo
Text: Acute toxicity [LD50 (mouse, intravenous injection)] of the following compounds was more than 3 g/kg.

SMILES | MIC [1] [µg/mL] | MIC [2] [µg/mL] | MIC [3] [µg/mL] | MIC [4] [µg/mL] | MIC [5] [µg/mL] | MIC [6] [µg/mL] | MIC [7] [µg/mL] | LD50 [8] [mg/kg]
CO/N=C(\C(=O)N[C@@H]1C(=O)N2C(C(=O)[O-])=C(C[N@+]3(C)CCC[C@H]3CO)CS[C@H]12)c1nsc(N)n1 [Example 1-A, 7β-[2-(5-Amino-1,2,4-thiadiazol-3-yl)-(Z)-2-methoxyiminoacetamido]-3-[(2S)-hydroxymethyl-(1S)-methylpyrrolidinio]methyl-3-cephem-4-carboxylate] | 1.56 (≈ 3.05 µM) | 6.25 (≈ 12.2 µM) | 0.025 (≈ 0.0489 µM) | 0.8 (≈ 1.56 µM) | 0.1 (≈ 0.195 µM) | 6.25 (≈ 12.2 µM) | 0.05 (≈ 0.0977 µM) | > 3000
CO/N=C(\C(=O)N[C@@H]1C(=O)N2C(C(=O)[O-])=C(C[N@+]3(C)CCC[C@H]3CO)CS[C@H]12)c1csc(N)n1 [Example 5, 7β-[2-(2-Aminothiazol-4-yl)-(Z)-2-methoxyiminoacetoamido]-3-[(2S)-hydroxymethyl-(1S)-methylpyrrolidinio]methyl-3-cephem-4-carboxylate] | 0.8 (≈ 1.57 µM) | 25 (≈ 49 µM) | 0.05 (≈ 0.0979 µM) | 3.13 (≈ 6.13 µM) | 0.1 (≈ 0.196 µM) | 12.5 (≈ 24.5 µM) | 0.05 (≈ 0.0979 µM) | > 3000
CO/N=C(\C(=O)N[C@@H]1C(=O)N2C(C(=O)[O-])=C(C[N@+]3(C)CCC[C@H]3C(N)=O)CS[C@H]12)c1csc(N)n1 [Control Compound, reference compound] | 1.56 (≈ 2.98 µM) | 50 (≈ 95.5 µM) | 0.1 (≈ 0.191 µM) | 6.25 (≈ 11.9 µM) | 0.2 (≈ 0.382 µM) | 12.5 (≈ 23.9 µM) | 0.2 (≈ 0.382 µM) | 
CO/N=C(\C(=O)N[C@@H]1C(=O)N2C(C(=O)[O-])=C(C[N@+]3(C)CCC[C@H]3C(N)=O)CS[C@H]12)c1nsc(N)n1 [Example 2, 7β-[2-(5-Amino-1,2,4-thiadiazol-3-yl)-(Z)-2-methoxyiminoacetamido]-3-[(2S)-carbamoyl-(1S)-methylpyrrolidinio]methyl-3-cephem-4-carboxylate] | 1.56 (≈ 2.97 µM) | 12.5 (≈ 23.8 µM) | < 0.025 | 1.56 (≈ 2.97 µM) | 0.1 (≈ 0.191 µM) | 3.13 (≈ 5.97 µM) | 0.05 (≈ 0.0953 µM) | > 3000
CO/N=C(\C(=O)N[C@@H]1C(=O)N2C(C(=O)[O-])=C(C[N@@+]3(C)CCC[C@H]3CO)CS[C@H]12)c1nsc(N)n1 [Example 1-B, 7β-[2-(5-Amino-1,2,4-thiadiazol-3-yl)-(Z)-2-methoxyiminoacetamido]-3-[ (2S)-hydroxymethyl-(1R)-methylpyrrolidinio]methyl-3-cephem-4-carboxylate] | 1.56 (≈ 3.05 µM) | 12.5 (≈ 24.4 µM) | 0.1 (≈ 0.195 µM) | 1.56 (≈ 3.05 µM) | 0.1 (≈ 0.195 µM) | 6.25 (≈ 12.2 µM) | 0.1 (≈ 0.195 µM) | 
CO/N=C(\C(=O)N[C@@H]1C(=O)N2C(C(=O)[O-])=C(C[N@+]3(C)CCC[C@H]3C)CS[C@H]12)c1nsc(N)n1 [Example 3, 7β-[2-(5-Amino-1,2,4-thiadiazol-3-yl)-(Z)-2-methoxyiminoacetamido]-3-[(1S,2R)-dimethylpyrrolidinio]methyl-3-cephem-4-carboxylate] | 1.56 (≈ 3.15 µM) | 12.5 (≈ 25.2 µM) | 0.2 (≈ 0.404 µM) | 1.56 (≈ 3.15 µM) | 0.2 (≈ 0.404 µM) | 6.25 (≈ 12.6 µM) | 0.2 (≈ 0.404 µM) | > 3000

Source: patent US4698336A, “3-(pyrrolidinio)methyl-3-cephem derivatives” (Eisai Co., Ltd., priority 1985, dated 1987)
